# According to patent US5607934A, “Piperazine derivatives and salts thereof” (Otsuka Pharmaceutical Co., Ltd., priority 1993, dated 1997):
# Key:
# [1] = tested on: superoxide radicals (O2^-) released from the peritoneal macrophage cells of guinea pig; experiment: Inhibitory effect against superoxide radicals (O2^-) released from the peritoneal macrophage cells of guinea pig by stimulation (FMLP); format: cell-based; settings: Cavia porcellus, Peritoneal macrophage cell; guinea pig peritoneal macrophages 2×10^6 cells/ml; FMLP 10^-7 M; cytochrome C reduction, OD550
# Description: Inhibitory effect against superoxide radicals (O2^-) released from the peritoneal macrophage cells of guinea pig by stimulation:
# Mineral oil (15 ml)was intraperitoneally administered to a guinea pig, then 96 hours after the administration, the peritoneal macrophage cells were sampled.
# Superoxide radicals (O2^-) were determined by means of reduction of cytochrome C method according to the procedure described in an article written by T. Matsumoto, K. Takeshige and S. Minakami: Biochemical and Biophysical Research Communications, Vol. 88, No. 3, pp. 974-979, (1979).
# Into 1 ml of 80 μM-cytochrome C solution, the peritoneal macrophage cells were added to make the final concentration of 2×10^6 cells/ml, then each one of the test compounds of the present invention was added thereto to make the test group sample. On the other hand, water was added in place of the test compound of the present invention to make the control group sample. Each of the test group samples and the control group samples were subjected to pre-incubation at 37° C. for 1 minute.
# As to the stimulating agent for releasing superoxide radicals (O2^-), FMLP (formylmethionyl leucyl phenylalanine)was added to each one of the test sample solutions and the control group samples to make the final concentration of FMLP to 10^-7 M, then the sample solutions were subjected to additional reaction by incubation for 1 minute.
# Difference between the optical absorbances measured at 550 nm (OD550) of both test group samples and control group samples were determined, the 50% inhibitory concentration (IC50) was obtained by calculating as the ratio of OD550 of the test group sample to that of the control group sample.
# [2] = tested on: releasing of hydrogen peroxide (H2 O2) from the neutrocyte of abdominal cavity of rat; experiment: Inhibitory effect against the releasing of hydrogen peroxide (H2O2) from the neutrocyte of abdominal cavity of rat; format: cell-based, SD-strain rat; settings: rat neutrocytes 10^6 cells/ml; FMLP 2×10^-6 M; 37° C., 1 hour; OD610
# Description: Inhibitory effect against the releasing of hydrogen peroxide (H2 O2) from the neutrocyte of abdominal cavity of rat
# 1%-Casein solution was administered to the abdominal cavity of a SD-strain rat, then 16 hours after the administration, the neutrocytes were obtained by washing the abdominal cavity. Thus obtained neutrocytes were washed with Hank's solution.
# In to a reaction mixture consisting of the following ingredients:
# ______________________________________
# HRP (Horse Radish peroxide)
# HEPES [N-(2-Hydroxyethyl)pipera-
# zine N'-2-ethanesulfonic acid]
# Rat neutrocytes 10^6 cells/ml
# the test compound was added, then the whole mixture was incubated at 37° C. for 1 hour, and the mixture was subjected to a centrifugal separation at 2,000 rpm for minutes. After the centrifugal separation, 1 ml of the supernatant was sampled and 10 μl of 1N-NaOH aqueous solution was added thereto. Then, the optical absorbance at 610 nm (OD610) of the supernatant was determined by means of using a spectro-photometer.
# The IC50 (50% inhibitory concentration) of the test compound was obtained by calculating as the ratio of OD610 of the test group sample to that of the control group sample.
# [3] = tested on: rat mesangial cell proliferation; experiment: Inhibitory effects on rat mesangial cell proliferation (interleukin-1β induced 3H-thymidine incorporation); format: cell-based, SD-strain rat; settings: 1 ng/ml interleukin-1β, read-out: Rate of inhibition; for inhibition at 3 µg/mL: concentration 3 μg/ml; for inhibition at 10 µg/mL: concentration 10 μg/ml
# Description: Inhibitory effects on rat mesangial cell proliferation
# The kidney of SD-strain rat was aseptically taken out by excision. and the renal cortex was cut out therefrom. The renal glomeruli were isolated by use of sieve. The glomeruli were cultivated in RPMI1640 culture medium [which contains 10% of FBS (fetal bovine serum)] for 4 weeks. Thus obtained cells were used as mesangial cells.
# An experiment of incorporation of thymidine by interleukin-1β was conducted by procedures according to the method of Ganz [Michael B. Ganz; Mary C. Perfetto and Walter F. Boron: American Journal of Physiology, Vol. 259, F269-F278, (1990)]. Thus, 2×10^4 cells/ml of mesangial cells were scattered on a 48-well plate (0.5 ml/well), and the cells were cultivated in RPMI culture medium (which contains 10% of FBS) for 3 days. Then, the culture medium was changed to another RPMI culture medium in which the concentration of FBS was decreased from 10% to 0.5% and cultivated for 3 days. Next, the RPMI culture medium (containing 0.5% of FBS) was changed to other RPMI culture medium to which the test compound and 1 ng/ml of interleukin-1β were added. The cultivation was conducted for 24 hours, then 1 μCi/well of 3H-thymidine was added to the culture medium, and the cultivation was continued for additional 24 hours.
# The amount of ^3 H-thymidine being incorporated into the mesangial cells was measured by use of a scintillation counter, and the rate of inhibition (%) in comparison of the test group vs. control group was calculated by the following formula:
# Rate of inhibition (%)=[(C-D)/(C-E)]×100
# C: the incorporated amount of ^3 H-thymidine in control group;
# D: the incorporated amount of ^3 H-thymidine in the case of that test compound was added;
# E: the incorporated amount of ^3 H-thymidine in the case of that interleukin-1β was not added.
# [4] = tested on: passive Heymann nephritis of rat; experiment: Inhibitory effect against increase of urinary proteins in the passive Heymann nephritis of rat; format: in vivo, SD-strain male rats; settings: oral, once a day for 7 days, urinary protein, 12th day
# Description: Inhibitory effect against increase of urinary proteins in the passive Heymann nephritis of rat
# SD-strain male rats (7 week old, body weight: 200-230 g)were used as test animals.
# An antiserum which will induce passive Heymann nephritis of rat was prepared by procedures according to the method of T. S. Edington, et al. [T. S. Edington, R. J. Glassock and F. J. Dixon: Autologous immune complex nephritis induced with renal tublar antigen. I. Identification and isolation of the pathogenetic antigen. Journal of Experimental Medicine Vol. 127, pp. 555-572 (1968).] as follows:
# At the first, an antigen (FX1A fraction) of the renaltublar brush border was sampled from the SD rat. Next, the antigen was admixed with Freund' complete adjuvant, then a New Zealand White rabbit was sensitized therewith. The sensitization procedures were conducted 3 times in every 2 weeks, and 2 weeks after the final sensitization, the blood sample was obtained from the rabbit. […]
# Heymann nephritis of the rats were induced by injecting the above-mentionedantiserum to the tail vein of the test rats. […] The urine samples of the rat were taken in time sequentially from the 10th day after the injection, and the amount of urinary protein in the samples were determined. The rate of inhibitory effect (%) against the production of urinary protein performed by the test compound was calculated by the formula as follows: […]
IC50 [2] [µg/mL],Structure (SMILES),IC50 [1] [µg/mL],inhibition at 3 µg/mL [3] [%],inhibition at 10 µg/mL [3] [%],Rate of inhibitory effect ([4]; 20 mg/kg/day) [%],Rate of inhibitory effect ([4]; 5 mg/kg/day) [%]
< 5,"CC(C)C[C@@H]1C(=O)N[C@H](Cc2cc(C(C)(C)C)c(O)c(C(C)(C)C)c2)C(=O)N1O (racemic) [Example 13, (3RS,6RS)-3-(3,5-di-tert-butyl-4-hydroxybenzyl)-1-hydroxy-6-isobutylpiperazine-2,5-dione]",1.3,77.9 ± 8.3,122 ± 6.1,57.8 ± 6.1,
3,CCOC(=O)C[C@@H]1NC(=O)[C@@H](Cc2c[nH]c3ccccc23)N(O)C1=O [Example 57],,26.3 ± 5.8,56.7 ± 2.9,,53.1 ± 15.1
